Values after ≈ are worked out from the molar mass of the structure shown. Where two headings read alike, the source gives them in different places.
Columns and labels:
[1] = tested on: Strain IFO 13887; experiment: Susceptibility toward antibiotic (minimum inhibition concentration); assay type: cell-based, Nocardia sp. No. C-14482; conditions: Nocardia
Description: (§1) For example, a conventional mutagenesis effected with the strain IFO 13725 as the parent strain yields the strain IFO 13887, a variant capable of producing advantageously Antibiotic C-14482 B. This strain has the capability to produce C-14482 B in increased quantities as compared with the parent strain thereof, and is similar in taxonomical characteristics to the parent strain, except the physiological properties shown in Table 4.

[2] = tested on: Strain IFO 13725; experiment: as above; assay type: cell-based, Nocardia sp. No. C-14482; conditions: Nocardia
Description: as §1

[3] = IFO13887, Strain IFO 13887, read-out: minimum inhibition concentration
[4] = IFO13725, Strain IFO 13725, read-out: minimum inhibition concentration

SMILES | MIC [1, 3] | MIC [2, 4] | MIC ([1]; IFO13887, read-out: minimum inhibition concentration) | MIC ([2]; IFO13725, read-out: minimum inhibition concentration)
O=C(N[C@H](CO)[C@H](O)c1ccc([N+](=O)[O-])cc1)C(Cl)Cl [Chloramphenicol] | 5 µg/mL (≈ 15.5 µM) | 10 µg/mL (≈ 30.9 µM) |  | 
CCC[C@@H]1C[C@@H](C(=O)N[C@@H]([C@H]2O[C@H](SC)[C@H](O)[C@@H](O)[C@H]2O)[C@@H](C)O)N(C)C1 [Lincomycin] | 20 µg/mL (≈ 49.2 µM) | 5 µg/mL (≈ 12.3 µM) |  | 
CC1(C)S[C@@H]2[C@H](NC(=O)Cc3ccccc3)C(=O)N2[C@H]1C(=O)O [Penicillin G] | 50 µg/mL (≈ 150 µM) | 10 µg/mL (≈ 29.9 µM) |  | 
CO[C@H]1/C=C/O[C@@]2(C)Oc3c(C)c(O)c4c(O)c(c(/C=N/N5CCN(C)CC5)c(O)c4c3C2=O)NC(=O)/C(C)=C\C=C\[C@H](C)[C@H](O)[C@@H](C)[C@@H](O)[C@@H](C)[C@H](OC(C)=O)[C@@H]1C [Rifampicin] | < 0.1 µg/mL | < 0.1 µg/mL |  | 
[H]/N=C(/N)N[C@H]1[C@H](O)[C@@H](O)[C@H](O[C@@H]2O[C@@H](C)[C@](O)(C=O)[C@H]2O[C@@H]2O[C@@H](CO)[C@H](O)[C@@H](O)[C@@H]2NC)[C@@H](N/C(N)=N\[H])[C@@H]1O [Streptomycin] | 5 µg/mL (≈ 8.6 µM) | 1 µg/mL (≈ 1.72 µM) |  | 
CN(C)C1C(=O)C(C(N)=O)=C(O)C2(O)C(=O)C3=C(O)c4c(O)cccc4C(C)(O)C3CC12 (stereo not drawn) [Tetracycline] |  |  | 1 µg/mL (≈ 2.25 µM) | 0.5 µg/mL (≈ 1.13 µM)
